≈ marks a conversion by molar mass, not a printed value.
Experiments:
Assay in all cases: In vitro antifungal activity, microbroth dilution MIC
Format in all cases: cell-based
[1] = system: Candida albicans C1-2; conditions: 4 to 48 hours; for Minimal inhibitory concentration(MIC), C. albicans C1-2: RPMI-1640, 35° C., no growth observed
Procedure: (§1) In vitro antifungal activities of the inventive antifungal compounds were evaluated using the test strains shown in Table VIII by the following microbroth dilution method which is a modified version of the procedure recommended by National Committee for Clinical Laboratory Standards(see National Committee for Clinical Laboratory Standards, 1992, Reference methods for broth dilution antifungal susceptibility testing of yeasts, Proposed standard M27-P, National Committee for clinical laboratory standards, Villanova, Pa; and National Committee for Clinical Laboratory Standards, 1995, Reference methods for broth dilution antifungal susceptibility testing of yeasts. Tentative standard M27-T, National Committee for clinical laboratory standards, Villanova, Pa).
(§2) Sabourad Dextrose Agar(Difco) was used as a culture medium, and RPMI-1640 broth(Sigma. Co. w/L-glutamine, wo/NaHCO3)(0.165 M MOPS, pH 7.0), as a dilution medium.
(§3) Each of the test strains were subcultured in Sabourad Dextrose Agar medium twice and a stain sample was taken from prominent colonies and suspended in sterile physiological saline solution in a cap tube. The turbidity of the suspension was adjusted to that of the Mcfarland 0.5 standard sample(approximately 10^6 CFU/ml). Then the suspension was diluted 500-fold with sterile RPMI-1640 liquid medium to 2×10^3 CFU/ml.
(§4) Each of the test compounds(the compounds obtained in Examples 1 to 150 and comparative compounds, i.e., fluconazole(FCZ) and itraconazole (ICZ)), was dissolved in DMSO to give a stock solution having a concentration of 4000 μg/ml and the stock solution was successively diluted to obtain test solutions having test compound concentrations of 200, 100, 50, 25, 12.5, 6.25, 3.13, 1.56, 0.78, 0.39, 0.20 and 0.10 μg/ml, respectively.
(§5) 0.1 ml portion of the test solutions were added to the wells of a sterile 96 well plate. Then, 0.1 ml portion of each of the test strain solutions were added successively to the wells and the plate was incubated at 35° C. for 4 to 48 hours.
(§6) Minimal inhibitory concentration(MIC) of each compound was defined as the concentration of the test compound where no growth of the strain could be observed.

[2] = system: Cryptococcus neoformans IFM. 40092; conditions: 4 to 48 hours; for Minimal inhibitory concentration(MIC), Cry. neoformans IFM. 40092: RPMI-1640, 35° C., no growth observed
Procedure: as §1, §2, §3, §4, §5, §6

[3] = system: Trichophyton mentagrophytes A. 9129; conditions: 4 to 48 hours; for Minimal inhibitory concentration(MIC), T. mentagrophytes A. 9129: RPMI-1640, 35° C., no growth observed
Procedure: as §1, §2, §3, §4, §5, §6

[4] = system: Candida pseudotropicalis K. 11658; conditions: 4 to 48 hours; for Minimal inhibitory concentration(MIC), C. pseudotropicalis K. 11658: RPMI-1640, 35° C., no growth observed
Procedure: as §1, §2, §3, §4, §5, §6

[5] = system: Aspergillus furnigatus B. 19119; conditions: 4 to 48 hours; for Minimal inhibitory concentration(MIC), A furnigatus B. 19119: RPMI-1640, 35° C., no growth observed
Procedure: as §1, §2, §3, §4, §5, §6

[6] = system: Cryptococcus neoformans B. 42419; conditions: 4 to 48 hours; for Minimal inhibitory concentration(MIC), Cry. neoformans B. 42419: RPMI-1640, 35° C., no growth observed
Procedure: as §1, §2, §3, §4, §5, §6

[7] = system: Candida parapsitosis A. 7330; conditions: 4 to 48 hours; for Minimal inhibitory concentration(MIC), C. parapsitosis A. 7330: RPMI-1640, 35° C., no growth observed
Procedure: as §1, §2, §3, §4, §5, §6

[8] = system: Candida tropicalis A. 13803; conditions: 4 to 48 hours; for Minimal inhibitory concentration(MIC), C. tropicalis A. 13803: RPMI-1640, 35° C., no growth observed
Procedure: as §1, §2, §3, §4, §5, §6

[9] = system: Candida krusei K. 11655; conditions: 4 to 48 hours; for Minimal inhibitory concentration(MIC), C. krusei K. 11655: RPMI-1640, 35° C., no growth observed
Procedure: as §1, §2, §3, §4, §5, §6

[10] = system: Candida albicans A. 10231; conditions: 4 to 48 hours; for Minimal inhibitory concentration(MIC), C. albicans A. 10231: RPMI-1640, 35° C., no growth observed
Procedure: as §1, §2, §3, §4, §5, §6

[11] = system: Aspergillus niger A. 16404; conditions: 4 to 48 hours; for Minimal inhibitory concentration(MIC), A. niger A. 16404: RPMI-1640, 35° C., no growth observed
Procedure: as §1, §2, §3, §4, §5, §6

[12] = system: Candida albicans IFO. 1385; conditions: 4 to 48 hours; for Minimal inhibitory concentration(MIC), C. albicans IFO. 1385: RPMI-1640, 35° C., no growth observed
Procedure: as §1, §2, §3, §4, §5, §6

[13] = system: Trichophyton mentagrophytes B. 32663; conditions: 4 to 48 hours; for Minimal inhibitory concentration(MIC), T. mentagrophytes B. 32663: RPMI-1640, 35° C., no growth observed
Procedure: as §1, §2, §3, §4, §5, §6

[14] = system: Cryptococcus neoformans A. 34144; conditions: 4 to 48 hours; for Minimal inhibitory concentration(MIC), Cry. neoformans A. 34144: RPMI-1640, 35° C., no growth observed
Procedure: as §1, §2, §3, §4, §5, §6

[15] = system: Torulopsis glabrata B. 16205; conditions: 4 to 48 hours; for Minimal inhibitory concentration(MIC), T. glabrata B. 16205: RPMI-1640, 35° C., no growth observed
Procedure: as §1, §2, §3, §4, §5, §6

SMILES | Minimal inhibitory concentration(MIC), C. albicans C1-2 [1] [mg/L] | Minimal inhibitory concentration(MIC), Cry. neoformans IFM. 40092 [2] [mg/L] | Minimal inhibitory concentration(MIC), T. mentagrophytes A. 9129 [3] [mg/L] | Minimal inhibitory concentration(MIC), C. pseudotropicalis K. 11658 [4] [mg/L] | Minimal inhibitory concentration(MIC), A furnigatus B. 19119 [5] [mg/L] | Minimal inhibitory concentration(MIC), Cry. neoformans B. 42419 [6] [mg/L] | Minimal inhibitory concentration(MIC), C. parapsitosis A. 7330 [7] [mg/L] | Minimal inhibitory concentration(MIC), C. tropicalis A. 13803 [8] [mg/L] | Minimal inhibitory concentration(MIC), C. krusei K. 11655 [9] [mg/L] | Minimal inhibitory concentration(MIC), C. albicans A. 10231 [10] [mg/L] | Minimal inhibitory concentration(MIC), A. niger A. 16404 [11] [mg/L] | Minimal inhibitory concentration(MIC), C. albicans IFO. 1385 [12] [mg/L] | Minimal inhibitory concentration(MIC), T. mentagrophytes B. 32663 [13] [mg/L] | Minimal inhibitory concentration(MIC), Cry. neoformans A. 34144 [14] [mg/L] | Minimal inhibitory concentration(MIC), T. glabrata B. 16205 [15] [mg/L] | also measured
Cc1cc(C)cc(C=C(F)OCC2COC(Cn3ccnc3)(c3ccc(Cl)cc3Cl)O2)c1 (stereo not drawn) [Ex. 6] | – | – | – | – | – | – | – | – | – | – | – | – | – | – | – | Minimal inhibitory concentration (MIC) ([1]; C. albicans C1-2, RPMI-1640, 35° C.): 12.5 mg/L (≈ 26.2 µM); Minimal inhibitory concentration (MIC) ([2]; Cry. neoformans IFM. 40092, RPMI-1640, 35° C.): 1.56 mg/L (≈ 3.27 µM); Minimal inhibitory concentration (MIC) ([3]; T. mentagrophytes A. 9129, RPMI-1640, 35° C.): 3.13 mg/L (≈ 6.56 µM); Minimal inhibitory concentration (MIC) ([4]; C. pseudotropicalis K. 11658, RPMI-1640, 35° C.): 12.5 mg/L (≈ 26.2 µM); Minimal inhibitory concentration (MIC) ([5]; A furnigatus B. 19119, RPMI-1640, 35° C.): 6.25 mg/L (≈ 13.1 µM); Minimal inhibitory concentration (MIC) ([6]; Cry. neoformans B. 42419, RPMI-1640, 35° C.): 3.13 mg/L (≈ 6.56 µM); Minimal inhibitory concentration (MIC) ([7]; C. parapsitosis A. 7330, RPMI-1640, 35° C.): 12.5 mg/L (≈ 26.2 µM); Minimal inhibitory concentration (MIC) ([8]; C. tropicalis A. 13803, RPMI-1640, 35° C.): 12.5 mg/L (≈ 26.2 µM); Minimal inhibitory concentration (MIC) ([9]; C. krusei K. 11655, RPMI-1640, 35° C.): 12.5 mg/L (≈ 26.2 µM); Minimal inhibitory concentration (MIC) ([10]; C. albicans A. 10231, RPMI-1640, 35° C.): 6.25 mg/L (≈ 13.1 µM); Minimal inhibitory concentration (MIC) ([11]; A. niger A. 16404, RPMI-1640, 35° C.): 6.25 mg/L (≈ 13.1 µM); Minimal inhibitory concentration (MIC) ([12]; C. albicans IFO. 1385, RPMI-1640, 35° C.): 0.78 mg/L (≈ 1.63 µM); Minimal inhibitory concentration (MIC) ([13]; T. mentagrophytes B. 32663, RPMI-1640, 35° C.): 3.13 mg/L (≈ 6.56 µM); Minimal inhibitory concentration (MIC) ([14]; Cry. neoformans A. 34144, RPMI-1640, 35° C.): 3.13 mg/L (≈ 6.56 µM); Minimal inhibitory concentration (MIC) ([15]; T. glabrata B. 16205, RPMI-1640, 35° C.): 6.25 mg/L (≈ 13.1 µM)
FC(=Cc1ccc(F)cc1)Oc1ccc(OCC2COC(Cn3ccnc3)(c3ccc(Cl)cc3Cl)O2)cc1 (mixture of isomers) [Ex. 92] | 50.0 | 0.78 | 25.0 | >100 | >100 | 3.13 | >100 | >100 | >100 | 25.0 | >100 | 3.13 | 12.5 | 3.13 | 50.0 | –
FC(Oc1ccc(OCC2COC(Cn3ccnc3)(c3ccc(Cl)cc3Cl)O2)cc1)=C(c1ccc2c(c1)OCO2)C(F)(F)F (mixture of isomers) [Ex. 99] | >100 | 0.78 | 50.0 | >100 | >100 | 3.13 | >100 | >100 | >100 | 100 | >100 | 3.13 | 25.0 | 3.13 | 100 | –
FC(Oc1ccc(OCC2COC(Cn3ccnc3)(c3ccc(Cl)cc3Cl)O2)cc1)=C(c1cccc(Cl)c1)C(F)(F)F (mixture of isomers) [Ex. 101] | 50.0 | 0.78 | 25.0 | >100 | 50.0 | 3.13 | >100 | >100 | >100 | 25.0 | >100 | 3.13 | 12.5 | 3.13 | 25.0 | –

From patent US6376497B1, “Antifungal azole derivatives having a fluorinated vinyl group and process for preparing same” (Korea Research Institute of Chemical Technology, priority 1999, dated 2002)
